Values after ≈ are worked out from the molar mass of the structure shown. Where two headings read alike, the source gives them in different places.
Tests used:
St. faecalis UC 694 = experiment: standard microplate test in BHI Agar (MIC), St. faecalis UC 694; type: cell-based; settings: Enterococcus faecalis, UC694, 20 h
Experimental: (§1) Compounds were also tested in a standard microplate test in Brain Heart Infusion (BHI) Agar, at a concentration of 1 mg/ml. Incubation is at 37° and end points are read at 20 hours. Brain Heart Infusion Agar (supplied by Difco Laboratories, Detroit, Michigan, U.S.A.) has the following composition:
(§2) Compounds (7β), (7α) and (9) were tested again along with compounds (11) and (14β) against a neamine control using the same conditions as given above.

S. marcescens UC 131 = experiment: standard microplate test in BHI Agar (MIC), S. marcescens UC 131; type: cell-based; settings: Serratia marcescens, UC131, 20 h, read-out: Minimum Inhibitory Concentration, S. marcescens UC 131, retest table, neamine control
Experimental: as §1, §2

K. pneumoniae UC 58 = experiment: standard microplate test in BHI Agar (MIC), K. pneumoniae UC 58; type: cell-based; settings: Klebsiella pneumoniae, UC58, 20 h, read-out: Minimum Inhibitory Concentration, K. pneumoniae UC 58
Experimental: as §1, §2

S. aureus UC 76 = experiment: standard microplate test in BHI Agar (MIC), S. aureus UC 76; type: cell-based, Staphylococcus aureus; settings: Staphylococcus aureus, UC76, 20 h
Experimental: as §1, §2

P. morgani UC 3186 = experiment: standard microplate test in BHI Agar (MIC), P. morgani UC 3186; type: cell-based; settings: 20 h, read-out: Minimum Inhibitory Concentration, P. morgani UC 3186, retest table, neamine control
Experimental: as §1, §2

S. schottmuelleri UC 126 = experiment: standard microplate test in BHI Agar (MIC), S. schottmuelleri UC 126; type: cell-based; settings: 20 h, read-out: Minimum Inhibitory Concentration
Experimental: as §1, §2

S. aureus UC 746 = experiment: standard microplate test in BHI Agar (MIC), S. aureus UC 746; type: cell-based; settings: Staphylococcus aureus, UC746, 20 h, 37°, first table, read-out: Minimum Inhibitory Concentration
Experimental: as §1, with “composition: […]” for “composition:”

P. rettgeri UC 339 = experiment: standard microplate test in BHI Agar (MIC), P. rettgeri UC 339; type: cell-based; settings: Providencia rettgeri, UC339, 20 h, read-out: Minimum Inhibitory Concentration, P. rettgeri UC 339, retest table, neamine control
Experimental: as §1, §2

P. vulgaris UC 93 = experiment: standard microplate test in BHI Agar (MIC), P. vulgaris UC 93; type: cell-based; settings: Proteus vulgaris, UC93, 20 h, read-out: Minimum Inhibitory Concentration, P. vulgaris UC 93
Experimental: as §1, §2

S. hemolyticus UC 152 = experiment: standard microplate test in BHI Agar (MIC), S. hemolyticus UC 152; type: cell-based, Streptococcus hemolyticus; settings: Streptococcus pyogenes, UC152, 20 h, read-out: Minimum Inhibitory Concentration, S. hemolyticus UC 152
Experimental: as §1, §2

E. coli UC 45 = experiment: standard microplate test in BHI Agar (MIC), E. coli UC 45; type: cell-based; settings: Escherichia coli, UC45, 20 h, read-out: Minimum Inhibitory Concentration, E. coli UC 45
Experimental: as §1, §2

S. typhi TG-3 = experiment: standard microplate test in BHI Agar (MIC), S. typhi TG-3; type: cell-based; settings: Salmonella enterica, 20 h, S. typhi TG-3, retest table, neamine control, read-out: Minimum Inhibitory Concentration
Experimental: as §1, §2

Ps. aeruginosa UC 95 = experiment: standard microplate test in BHI Agar (MIC), Ps. aeruginosa UC 95; type: cell-based; settings: Pseudomonas aeruginosa, UC95, 20 h, read-out: Minimum Inhibitory Concentration, Ps. aeruginosa UC 95
Experimental: as §1, §2

S. aureus UC 570 = experiment: standard microplate test in BHI Agar (MIC), S. aureus UC 570; type: cell-based; settings: Staphylococcus aureus, UC570, 20 h, 37°, first table, read-out: Minimum Inhibitory Concentration
Experimental: as §1, with “composition: […]” for “composition:”

P. mirabilis A-63 = experiment: standard microplate test in BHI Agar (MIC), P. mirabilis A-63; type: cell-based
Experimental: as §1, §2

D. pneumoniae UC 41 = experiment: standard microplate test in BHI Agar (MIC), D. pneumoniae UC 41; type: cell-based; settings: Streptococcus pneumoniae, UC41, 20 h, read-out: Minimum Inhibitory Concentration, D. pneumoniae UC 41
Experimental: as §1, §2

S. flexneri UC 143 = experiment: standard microplate test in BHI Agar (MIC), S. flexneri UC 143; type: cell-based; settings: retest table, neamine control
Experimental: as §1, §2

[1] = BHI agar, 37°, 20 h, first table
[2] = BHI agar, 37°, 20 h, first table, *run on different day
[3] = retest table, group (7β), (14β), neamine control
[4] = retest table, group (9), (11), (7α), neamine control

Work on `NC[C@H]1O[C@H](O[C@H]2[C@H](O)[C@@H](O)[C@H](N)C[C@@H]2N)[C@H](N)[C@@H](O)[C@@H]1O` [Neamine, reference compound] yielded an MIC (St. faecalis UC 694; read-out: Minimum Inhibitory Concentration, S. faecalis UC 694, retest table, group (7β), (14β), neamine control) of 500 µg/mL (≈ 1550 µM), an MIC (St. faecalis UC 694; read-out: Minimum Inhibitory Concentration, S. faecalis UC 694, retest table, group (9), (11), (7α), neamine control) of 500 µg/mL (≈ 1550 µM) and an MIC (St. faecalis UC 694; read-out: Minimum Inhibitory Concentration, St. faecalis UC 694, BHI agar, 37°, 20 h, first table) of 1000 µg/mL (≈ 3100 µM). For the same compound, the MIC (St. faecalis UC 694; read-out: Minimum Inhibitory Concentration, St. faecalis UC 694, BHI agar, 37°, 20 h, first table, *run on different day) was 500 µg/mL (≈ 1550 µM), the MIC (S. marcescens UC 131; group (7β), (14β)) was 250 µg/mL (≈ 776 µM) and the MIC (S. marcescens UC 131; group (9), (11), (7α)) was 125 µg/mL (≈ 388 µM). For the same compound, the MIC (K. pneumoniae UC 58; [1]) was 7.8 µg/mL (≈ 24.2 µM), the MIC (K. pneumoniae UC 58; [2]) was 15.6 µg/mL (≈ 48.4 µM) and the MIC (K. pneumoniae UC 58; [3]) was 3.9 µg/mL (≈ 12.1 µM). For the same compound, the MIC (K. pneumoniae UC 58; [4]) was 7.8 µg/mL (≈ 24.2 µM), the MIC (S. aureus UC 76; read-out: Minimum Inhibitory Concentration, S. aureus 284 UC 76, BHI agar, 37°, 20 h, first table) was 125 µg/mL (≈ 388 µM) and the MIC (S. aureus UC 76; read-out: Minimum Inhibitory Concentration, S. aureus 284 UC 76, BHI agar, 37°, 20 h, first table, *run on different day) was 62.5 µg/mL (≈ 194 µM). The MIC (S. aureus UC 76; read-out: Minimum Inhibitory Concentration, S. aureus UC 76, retest table, group (7β), (14β), neamine control) was 31.2 µg/mL (≈ 96.8 µM), the MIC (S. aureus UC 76; read-out: Minimum Inhibitory Concentration, S. aureus UC 76, retest table, group (9), (11), (7α), neamine control) was 31.2 µg/mL (≈ 96.8 µM) and the MIC (P. morgani UC 3186; group (7β), (14β)) was 62.5 µg/mL (≈ 194 µM). The MIC (P. morgani UC 3186; group (9), (11), (7α)) was 31.2 µg/mL (≈ 96.8 µM), the MIC (S. schottmuelleri UC 126; BHI agar, 37°, first table, *run on different day) was 62.5 µg/mL (≈ 194 µM) and the MIC (S. schottmuelleri UC 126; BHI agar, 37°, first table) was 62.5 µg/mL (≈ 194 µM). It also gave an MIC (S. schottmuelleri UC 126; [3]) of 31.2 µg/mL (≈ 96.8 µM), an MIC (S. schottmuelleri UC 126; [4]) of 62.5 µg/mL (≈ 194 µM) and an MIC (S. aureus UC 746; *run on different day) of 62.5 µg/mL (≈ 194 µM). The MIC (S. aureus UC 746) was 250 µg/mL (≈ 776 µM), the MIC (P. rettgeri UC 339; group (7β), (14β)) was 1000 µg/mL (≈ 3100 µM) and the MIC (P. rettgeri UC 339; group (9), (11), (7α)) was 500 µg/mL (≈ 1550 µM). For the same compound, the MIC (P. vulgaris UC 93; [1]) was 250 µg/mL (≈ 776 µM), the MIC (P. vulgaris UC 93; [2]) was 125 µg/mL (≈ 388 µM) and the MIC (P. vulgaris UC 93; [3]) was 62.5 µg/mL (≈ 194 µM). For the same compound, the MIC (P. vulgaris UC 93; [4]) was 15.6 µg/mL (≈ 48.4 µM), the MIC (S. hemolyticus UC 152; [1]) was 3.9 µg/mL (≈ 12.1 µM) and the MIC (S. hemolyticus UC 152; [2]) was 7.8 µg/mL (≈ 24.2 µM). It also gave an MIC (S. hemolyticus UC 152; [3]) of 3.9 µg/mL (≈ 12.1 µM), an MIC (S. hemolyticus UC 152; [4]) of 2 µg/mL (≈ 6.2 µM) and an MIC (E. coli UC 45; [1]) of 62.5 µg/mL (≈ 194 µM). The MIC (E. coli UC 45; [2]) was 125 µg/mL (≈ 388 µM), the MIC (E. coli UC 45; [3]) was 62.5 µg/mL (≈ 194 µM) and the MIC (E. coli UC 45; [4]) was 62.5 µg/mL (≈ 194 µM). The MIC (S. typhi TG-3; group (7β), (14β)) was 15.6 µg/mL (≈ 48.4 µM), the MIC (S. typhi TG-3; group (9), (11), (7α)) was 31.2 µg/mL (≈ 96.8 µM) and the MIC (Ps. aeruginosa UC 95; [1]) was greater than 1000 µg/mL. The MIC (Ps. aeruginosa UC 95; [2]) was greater than 1000 µg/mL, the MIC (Ps. aeruginosa UC 95; [3]) was 1000 µg/mL (≈ 3100 µM) and the MIC (Ps. aeruginosa UC 95; [4]) was 1000 µg/mL (≈ 3100 µM). The MIC (S. aureus UC 570; *run on different day) was 62.5 µg/mL (≈ 194 µM), the MIC (S. aureus UC 570) was 250 µg/mL (≈ 776 µM) and the “Minimum Inhibitory Concentration” value (P. mirabilis A-63; P. mirabilis A-63, retest table, group (7β), (14β), neamine control) was 250 µg/mL. For the same compound, the MIC (P. mirabilis A-63; Proteus mirabilis, A63, 20 h, read-out: Minimum Inhibitory Concentration) was 250 µg/mL (≈ 776 µM), the MIC (D. pneumoniae UC 41; [1]) was greater than 1000 µg/mL and the MIC (D. pneumoniae UC 41; [2]) was greater than 1000 µg/mL. It also gave an MIC (D. pneumoniae UC 41; [3]) of 31.2 µg/mL (≈ 96.8 µM), an MIC (D. pneumoniae UC 41; [4]) of 62.5 µg/mL (≈ 194 µM) and an MIC (S. flexneri UC 143; Shigella flexneri, UC143, 20 h, group (9), (11), (7α), read-out: Minimum Inhibitory Concentration) of 62.5 µg/mL (≈ 194 µM). The “Minimum Inhibitory Concentration” value (S. flexneri UC 143; group (7β), (14β)) was 62.5 µg/mL.

Source: patent US3984393A, “Aminoglycoside antibiotics” (The Upjohn Company, priority 1975, dated 1976)
